Assay [1] in a line: Downregulation of SREBP-1c mRNA expression in human HepG2 cells at 10 uM pretreated with compound for 30 mins followed by T0901317 addition and measured after 12 hrs by RT-qPCR analysis relative to control. It is filed as functional. Conditions: time 12.5 hrs.
In the next assay the test system is HepG2. Briefly: Cytotoxicity against human HepG2 cells at 10 uM measured after 24 hrs by CCK-8 method relative to control. It is filed as functional. On the technique in general: Formazan colour is commonly taken as a measure of viable cells.
In assay [2] the target is T1, Sterol regulatory element-binding protein 1 (Homo sapiens) (UniProt P36956).
T1 sequence (whole entry): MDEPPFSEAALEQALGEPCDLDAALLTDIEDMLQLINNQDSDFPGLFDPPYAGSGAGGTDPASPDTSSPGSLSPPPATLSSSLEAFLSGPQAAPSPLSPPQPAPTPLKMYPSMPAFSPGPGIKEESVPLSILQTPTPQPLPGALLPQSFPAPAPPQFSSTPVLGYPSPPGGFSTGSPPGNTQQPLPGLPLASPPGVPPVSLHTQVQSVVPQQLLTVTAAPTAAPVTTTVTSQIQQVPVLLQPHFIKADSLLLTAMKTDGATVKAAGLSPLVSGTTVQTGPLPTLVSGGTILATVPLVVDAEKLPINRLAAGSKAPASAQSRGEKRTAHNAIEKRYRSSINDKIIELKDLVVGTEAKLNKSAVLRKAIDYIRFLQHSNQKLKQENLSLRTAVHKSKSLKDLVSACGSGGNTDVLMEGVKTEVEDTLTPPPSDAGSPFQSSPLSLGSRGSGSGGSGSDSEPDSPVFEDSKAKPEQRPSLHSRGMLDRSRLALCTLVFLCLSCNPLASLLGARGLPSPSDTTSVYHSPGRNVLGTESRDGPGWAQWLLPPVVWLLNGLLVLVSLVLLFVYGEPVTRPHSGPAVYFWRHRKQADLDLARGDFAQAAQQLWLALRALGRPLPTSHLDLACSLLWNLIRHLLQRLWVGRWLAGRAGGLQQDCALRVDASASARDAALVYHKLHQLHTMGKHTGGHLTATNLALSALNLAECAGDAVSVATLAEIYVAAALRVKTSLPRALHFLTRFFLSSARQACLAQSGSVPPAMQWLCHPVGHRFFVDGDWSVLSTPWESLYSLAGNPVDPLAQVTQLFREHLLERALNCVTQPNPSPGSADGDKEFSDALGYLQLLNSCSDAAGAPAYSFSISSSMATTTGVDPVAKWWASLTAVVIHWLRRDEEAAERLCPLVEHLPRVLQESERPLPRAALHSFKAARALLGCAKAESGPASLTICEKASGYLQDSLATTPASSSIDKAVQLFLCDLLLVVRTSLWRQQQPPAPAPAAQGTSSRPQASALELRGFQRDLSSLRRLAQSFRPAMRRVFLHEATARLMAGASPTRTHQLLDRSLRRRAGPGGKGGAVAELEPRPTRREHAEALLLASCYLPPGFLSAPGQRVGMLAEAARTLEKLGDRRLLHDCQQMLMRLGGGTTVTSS
Briefly: Inhibition of SREBP-1c transcriptional activity in human HepG2 cells expressing LXRalpha/RXRalpha assessed as reduction in SRE-luciferase level at 10 uM pretreated with compound for 30 mins followed by T0901317 addition and measured after 12 hrs by Dual-Glo luciferase assay relative to control. Conditions: time 12.5 hrs. It is filed as cell-based.

For the compound `COc1ccc(Nc2c(N[C@H]3CC[C@H](Oc4ccc(C#N)cc4)CC3)c(=O)c2=O)cc1`, the Activity in assay [1] came out at 70.6%; with HepG2, 88.3%. Also, in assay [2], the inhibition is 35.7%.

Consider `CS(=O)(=O)c1ccc(O[C@H]2CC[C@H](Nc3c(Nc4ccc(Cl)cc4)c(=O)c3=O)CC2)cc1`, for which the Activity in assay [1] is on record as 47.9%; with HepG2, 90.7%. In addition, the inhibition in assay [2] amounted to 107%.

On to `COC(=O)c1ccc(Nc2c(N[C@H]3CC[C@H](Oc4ccc(S(C)(=O)=O)cc4)CC3)c(=O)c2=O)cc1`, for which the Activity came to 22.3% in assay [1] and 90.1% with HepG2. Besides, the inhibition in assay [2] was 40.5%.

On to `O=c1c(Nc2ccccc2)c(N[C@H]2CC[C@H](Oc3ccc([N+](=O)[O-])cc3)CC2)c1=O`, for which the Activity in assay [1] turned out to be 82.7%; with HepG2, 102.8%. The inhibition in assay [2] was 59.6%.

As for `COc1cccc(Nc2c(N[C@H]3CC[C@H](Oc4ccc(C#N)cc4)CC3)c(=O)c2=O)c1`, the Activity in assay [1] amounted to 60.6%; in the assay on HepG2 it was 91.4%. Moreover, in assay [2], the inhibition worked out at 51.1%.

Turning to `COc1ccc(Nc2c(N[C@H]3CC[C@H](Oc4ccc(S(C)(=O)=O)cc4)CC3)c(=O)c2=O)cc1`, the Activity in assay [1] is 34.2%; with HepG2, 93.9%. Also, the inhibition in assay [2] amounted to 53.3%.

On to `COc1cccc(Nc2c(N[C@H]3CC[C@H](Oc4ccc([N+](=O)[O-])cc4)CC3)c(=O)c2=O)c1`, for which the Activity in assay [1] is 64.3%; in the assay with HepG2, 87.2%. Also, in assay [2], the inhibition turned out to be 18%.

`COc1ccccc1Nc1c(N[C@H]2CC[C@H](Oc3ccc(S(C)(=O)=O)cc3)CC2)c(=O)c1=O`: the Activity in assay [1] is 34.4%; in the assay on HepG2, 962%. For the same compound, in assay [2], the inhibition is 22.2%.

Consider `N#Cc1ccc(O[C@H]2CC[C@H](Nc3c(Nc4ccc(Cl)cc4)c(=O)c3=O)CC2)cc1`, for which the Activity in assay [1] came out at 36.9%; in the assay on HepG2, 96.2%. Moreover, in assay [2], the inhibition was 87.1%.

With `O=C(Nc1ccc(Br)cc1)Nc1cccnc1`, the Activity in assay [1] turned out to be 56.6%.

`COc1cccc(Nc2c(N[C@H]3CC[C@H](Oc4ccc(S(C)(=O)=O)cc4)CC3)c(=O)c2=O)c1`: the Activity in assay [1] turned out to be 62.5%; in the assay on HepG2, 100.4%. Also, the inhibition in assay [2] came out at 51.1%.

Take `O=c1c(Nc2ccc(F)cc2)c(N[C@H]2CC[C@H](Oc3ccc([N+](=O)[O-])cc3)CC2)c1=O`: the Activity in assay [1] turned out to be 52.9%; in the assay on HepG2 it was 76.7%. Besides, in assay [2], the inhibition was 23.9%.

For the compound `O=c1c(Nc2ccccc2)c(N[C@H]2CC[C@H](Oc3ccc(C(F)(F)F)cc3)CC2)c1=O`, the Activity in assay [1] turned out to be 77%; with HepG2, 93.2%. Further, the inhibition in assay [2] worked out at 70.8%.

In the case of `O=c1c(Nc2ccc(F)cc2)c(N[C@H]2CC[C@H](Oc3ccc(C(F)(F)F)cc3)CC2)c1=O`, the figures for the Activity (in assay [1]; in the assay with HepG2) were 59.3% and 87.8%, respectively. Further, the inhibition in assay [2] is 40%.

As to `O=c1c(Nc2ccc(Cl)cc2)c(N[C@H]2CC[C@H](Oc3ccc(C(F)(F)F)cc3)CC2)c1=O`, the Activity in assay [1] was 103.6%; in the assay on HepG2 it was 88.4%. Further, in assay [2], the inhibition turned out to be 39.1%.

Take `COc1ccc(Nc2c(N[C@H]3CC[C@H](Oc4ccc([N+](=O)[O-])cc4)CC3)c(=O)c2=O)cc1`: the Activity in assay [1] is listed as 34.3%; in the assay on HepG2 it was 88.4%. Moreover, in assay [2], the inhibition worked out at 57.6%.

In the case of `N#Cc1ccc(O[C@H]2CC[C@H](Nc3c(Nc4ccc(F)cc4)c(=O)c3=O)CC2)cc1`, the Activity amounted to 87.4% in assay [1] and 77% in the assay with HepG2. Besides, the inhibition in assay [2] worked out at 46.2%.

For the compound `N#Cc1ccc(O[C@H]2CC[C@H](Nc3c(Nc4ccccc4)c(=O)c3=O)CC2)cc1`, the Activity in assay [1] is recorded as 84.8%; in the assay on HepG2, 90.6%. In addition, in assay [2], the inhibition worked out at 80.1%.

On to `CS(=O)(=O)c1ccc(O[C@H]2CC[C@H](Nc3c(Nc4ccccc4)c(=O)c3=O)CC2)cc1`, for which the Activity in assay [1] stood at 76.1%; in the assay with HepG2 it was 76.2%. For the same compound, the inhibition in assay [2] worked out at 76.2%.

As for `CC(C)(C)c1ccc(Nc2c(N[C@H]3CC[C@H](Oc4ccc([N+](=O)[O-])cc4)CC3)c(=O)c2=O)cc1`, in assay [1], the Activity amounted to 50.4%. In addition, the inhibition in assay [2] was found to be 42.8%.

As to `CC(C)(C)c1ccc(Nc2c(N[C@H]3CC[C@H](Oc4ccc(C(F)(F)F)cc4)CC3)c(=O)c2=O)cc1`, the results for the Activity (in assay [1]; in the assay on HepG2) were 68% and 95.9%, respectively. Besides, in assay [2], the inhibition amounted to 32.6%.

As to `COC(=O)c1ccc(Nc2c(N[C@H]3CC[C@H](Oc4ccc(C#N)cc4)CC3)c(=O)c2=O)cc1`, the Activity came to 65.9% in assay [1] and 99.1% in the assay on HepG2. Further, in assay [2], the inhibition worked out at 50.4%.

For `COc1cccc(Nc2c(N[C@H]3CC[C@H](Oc4ccc(C(F)(F)F)cc4)CC3)c(=O)c2=O)c1`, the Activity came to 69.9% in assay [1] and 97.4% with HepG2. The inhibition in assay [2] turned out to be 41.5%.

Take `CC(C)(C)c1ccc(Nc2c(N[C@H]3CC[C@H](Oc4ccc(S(C)(=O)=O)cc4)CC3)c(=O)c2=O)cc1`: the Activity in assay [1] is given as 68.5%; with HepG2 it was 95%. Also, the inhibition in assay [2] stood at 26.9%.

Regarding `COc1ccc(Nc2c(N[C@H]3CC[C@H](Oc4ccc(C(F)(F)F)cc4)CC3)c(=O)c2=O)cc1`, the results for the Activity (in assay [1]; in the assay on HepG2) were 28.7% and 94.8%, respectively. Moreover, the inhibition in assay [2] amounted to 35.6%.

On to `COC(=O)c1ccc(Nc2c(N[C@H]3CC[C@H](Oc4ccc(C(F)(F)F)cc4)CC3)c(=O)c2=O)cc1`, for which the Activity in assay [1] was 91.6%; in the assay on HepG2, 104.7%. The inhibition in assay [2] amounted to 47.5%.

`CS(=O)(=O)c1ccc(O[C@H]2CC[C@H](Nc3c(Nc4ccc(F)cc4)c(=O)c3=O)CC2)cc1`: the Activity was 24% in assay [1] and 91.3% with HepG2.

Regarding `COC(=O)c1ccc(Nc2c(N[C@H]3CC[C@H](Oc4ccc([N+](=O)[O-])cc4)CC3)c(=O)c2=O)cc1`, the Activity in assay [1] turned out to be 26.7%; in the assay with HepG2 it was 91%. Besides, the inhibition in assay [2] worked out at 41.7%.

Consider `O=c1c(Nc2ccc(Cl)cc2)c(N[C@H]2CC[C@H](Oc3ccc([N+](=O)[O-])cc3)CC2)c1=O`, for which the Activity in assay [1] is 49.8%; in the assay with HepG2, 78.6%. Also, the inhibition in assay [2] worked out at 24.3%.

With `CC(C)(C)c1ccc(Nc2c(N[C@H]3CC[C@H](Oc4ccc(C#N)cc4)CC3)c(=O)c2=O)cc1`, the Activity in assay [1] worked out at 61.5%; in the assay with HepG2, 87.4%. Also, in assay [2], the inhibition is 30.1%.

In the case of `COc1ccccc1Nc1c(N[C@H]2CC[C@H](Oc3ccc(C(F)(F)F)cc3)CC2)c(=O)c1=O`, the values for the Activity (in assay [1]; in the assay with HepG2) were 30% and 77.8%, respectively. Moreover, the inhibition in assay [2] amounted to 21.5%.

In general, inhibition refers to the relative decrease from the control value, in per cent.

These data come from ChEMBL document CHEMBL6120940, “Discovery of N-Aryl-N'-[4-(aryloxy)cyclohexyl]squaramide-Based Inhibitors of LXR/SREBP-1c Signaling Pathway Ameliorating Steatotic Liver Disease: Navigating the Role of SIRT6 Activation” (J Med Chem, 2024).
